Patent EP4790048A1, “S1PR4 REGULATOR COMPOUND FOR AUTOIMMUNE DISEASE TREATMENT AND APPLICATION THEREOF” (Shengyuan Zetong (Shanghai) Pharmaceutical Co., Ltd, priority 2023, dated 2025)
Where two headings read alike, the source gives them in different places.

Tests used:
S1PR5 = molecular target: T1, S1PR5 (Homo sapiens, UniProt Q9H228); assay: FLIPR assay, S1PR5-CHO cell line; assay type: cell-based; settings: mean ± SD
T1 construct: expressed in transfected cells

SKG mice = assay: Curdlan-induced ankylosing spondylitis (AS) model in SKG mice; assay type: in vivo; settings: compound 30 3 mg/kg; for peripheral clinical symptom scores: Week 12, compound 67 3 mg/kg intragastric daily, adalimumab 10 mg/kg i.p., P < 0.05 vs model group; for swelling of the wrist and ankle joints / spinal CT imaging scores: compound 67 3 mg/kg; for spinal CT imaging scores: adalimumab 10 mg/kg, P<0.05 vs model group
Protocol: After adaptive feeding, SKG mice were used for the experiment. Except for 5 mice as the blank control group, the other 20 mice were intraperitoneally injected with Curdlan (3 mg per mouse) at week 0 and week 2 of the experiment to establish an AS mouse model, and were randomly divided into 4 groups: model group, positive control group treated with adalimumab (10 mg/kg), compound 30 group (3 mg/kg), and compound 67 group (3 mg/kg), with 5 mice in each group. Mice in the compound 30 and 67 groups were intragastrically administered compound 30 and 67 daily starting from week 3.3 until sacrifice; the positive control group received intraperitoneal injection of adalimumab injection (first administration at week 3.3, second at week 9). Body weight was measured every week to adjust the dosage.
Clinical symptom observation of the limbs and toes were conducted, and their redness and swelling were scored, with a total score of 16 points (4 points per foot).
• 0 = No swelling • 1 = Mild swelling and redness on the top of the foot • 2 = Severe swelling and redness on the top of the foot • 3 = Severe swelling and redness in the wrist or ankle joint • 4 = Severe swelling in the wrist or ankle joint and toes.
CT scans were performed on mice at Week 13.4 and 14.3 of the experiment to obtain imaging data of the mice's bones and joints. Image WL: 1400; WW: 2000.
• 1. Spine (total 2 points): 1 point for narrowed intervertebral space, 2 points for complete fusion. • 2. Sacroiliac joints (1 point for each side, total 2 points): 0.5 points for blurred and sclerotic articular surface, 0.5 points for narrowed joint space. • 3. Zygapophyseal joints of the spine (1 point for each side, total 2 points): 0.5 points for narrowed joint space, 1 point for complete fusion.
Analysis of variance (ANOVA) was performed using IBM SPSS Statistics software to obtain statistical results of the dataset, with P < 0.05 considered statistically significant.

SD rats = assay: MIA-induced osteoarthritis (OA) model in rats; assay type: in vivo; settings: for gross observation of knee joint femoral condyle cartilage: Day 15 dissection, 5 rats per group
Protocol: SD rats, approximately 200 g, male. Purchased from Shanghai Bikai Animal Co., Ltd. Adaptive feeding was conducted for about 7 days.
3.1.1 Anesthesia: the rat was placed into the anesthesia box, the O2 gas source and the gas delivery pump were turned on, and the gas adjustment knob was rotated to set the ratio of O2 to isoflurane at 8:2. The anesthesia depth knob was adjusted: first the indicator was turned to 3 to induce deep anesthesia in the rat; during the subsequent surgical procedure, the indicator was adjusted to 1.5 to maintain anesthesia. The three-way valve was opened to deliver gas into both the anesthesia box and the rat anesthesia mask.
The syringe needle was inserted at a 45° angle to the plateau along the lateral side of the patellar ligament, as shown in the figure below. The Control group is injected with 50 µl of 0.9% sterile normal saline, while the other groups are injected with 50 µl of sterile normal saline containing 3 mg of MIA. After the procedure, the rat was removed, placed in a breeding cage, and irradiated with an incandescent lamp to help restore body temperature until the rat recovers from anesthesia.
The Control group was administered 5% DMSO + 35% PEG400 + 60% normal saline. The compounds were dissolved in a system consisting of 5% dimethyl sulfoxide (DMSO), 35% polyethylene glycol 400 (PEG 400), and 60% normal saline. The drug solutions were prepared on the evening one day before administration.
The rats were acclimated for 1 week and randomly divided into groups, with a total of 10 rats. The Control group was administered 5% DMSO + 35% PEG400 + 60% normal saline, while the other groups were given the test compounds dissolved in 5% DMSO + 35% PEG400 + 60% normal saline.
3.4.1. From Day 1 to Day 14 of the experiment, the rats were administered intragastrically once daily, with a gavage volume of 5 mL/kg. The Control group and Model group were given 5% DMSO + 35% PEG400 + 60% normal saline throughout the experiment, while the other groups were administered the corresponding drugs.
On Day 7 and Day14 of the experiment, behavioral and joint pain tests were performed on the rats. To minimize confounding factors, the tests were conducted 1 hour after administration at a fixed time, preventing variations in the rats' condition at different time points from affecting the experimental results. The rats were allowed to acclimate to the environment for 20 minutes before the start of the experiment. • (1) Observation of walking distance and rearing times within five minutes: the dimensions of the resin box were measured and a paper sheet of the corresponding size was prepared. 1 cm × 1 cm grids were drawn on the paper sheet. The paper sheet was sealed with a transparent tape to prevent damage from rat excrement. Then the paper sheet with 1 cm × 1 cm grids was placed into the transparent resin box, ensuring a flat bottom. A camera device was used to record the walking process and trajectory of the rat within 5 minutes, and the walking distance and rearing times of the rat were counted. • (2) Joint Pain Assessment: After fixing the rat and allowing it to calm down, its knee joint was gently bent. […] The knee joint pain severity in rats is reflected by the scores of leg withdrawal and vocalization. The joint pain assessment was performed every 5 seconds for a total of 5 times.
On Day 15 of the experiment, the rats were anesthetized, and blood was collected from their eyeballs. The serum was left to stand overnight at 4°C, centrifuged at 3600 rpm for 15 minutes at 4°C. The serum was aspirated and stored at -80°C. The rats were sacrificed by cervical dislocation. An incision was made along the knee joint on ice to remove fur, muscle, and other tissues. For each group, 5 rats were used; bilateral knee joints were dissected, and the color, roughness, and integrity of the femoral condyle surface were observed. The knee joint cartilage was then harvested and cryopreserved at -80°C. […]

[1] = DAY7, 0.3 mg/kg intragastric once daily, vs Model group
[2] = DAY7, 3 mg/kg intragastric once daily, vs Model group
[3] = DAY14, 0.3 mg/kg, vs Model group

T1 sequence (Q9H228 whole entry, species assumed): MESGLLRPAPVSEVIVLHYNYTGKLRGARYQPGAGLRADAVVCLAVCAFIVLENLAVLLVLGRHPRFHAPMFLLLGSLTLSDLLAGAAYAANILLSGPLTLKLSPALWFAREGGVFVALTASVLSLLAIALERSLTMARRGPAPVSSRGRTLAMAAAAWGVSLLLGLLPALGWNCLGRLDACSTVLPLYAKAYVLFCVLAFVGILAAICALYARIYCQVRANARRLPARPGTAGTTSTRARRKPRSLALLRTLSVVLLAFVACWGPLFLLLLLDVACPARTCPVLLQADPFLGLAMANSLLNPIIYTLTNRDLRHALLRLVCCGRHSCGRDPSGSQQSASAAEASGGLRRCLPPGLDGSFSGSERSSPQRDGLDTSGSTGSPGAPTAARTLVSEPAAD

SMILES	EC50 (S1PR5; read-out: EC50) [µM]	peripheral clinical symptom scores (SKG mice)	swelling of the wrist and ankle joints (SKG mice)	spinal CT imaging scores (SKG mice)	OARSI score (severity of knee osteoarthritis) (SD rats; 1 mg/kg, vs Model group)	OARSI score (severity of knee osteoarthritis) (SD rats; 3 mg/kg, vs Model group)	pain index (SD rats; [1])	five-minute walking distance (SD rats; DAY7, 1 mg/kg, vs Model group)	pain index (SD rats; [2])	five-minute walking distance (SD rats; [3])	pain index (SD rats; DAY14, 1 mg/kg, vs Model group)	five-minute walking distance (SD rats; DAY14, 3 mg/kg, vs Model group)	pain index (SD rats; DAY14, 3 mg/kg, vs Model group)	gross observation of knee joint femoral condyle cartilage (SD rats)	Safranin O-Fast Green staining of knee joints (SD rats; vs Model group)	also measured
CCc1cc(/C(C)=N/OCc2ccc(-c3ccccc3)c(C)c2)ccc1CN1CC[C@H](C(=O)O)C1 [Compound 30]	> 10	significantly lower	significantly reduced swelling of the wrist and ankle joints	significantly lower imaging scores	showed significant differences	showed significant differences	significantly decreased	increased significantly	significantly decreased	increased significantly	significantly decreased	increased significantly	significantly decreased	knee cartilage in most rats became smooth and glossy	enhanced safranin staining	EC50 (S1PR5): no agonist activity; OARSI score (severity of knee osteoarthritis) (SD rats; 0.3 mg/kg, vs Model group): showed significant differences; five-minute walking distance (SD rats; DAY7, 0.3 mg/kg, vs Model group): increased significantly
CCc1cc(/C(C)=N/OCc2ccc(-c3cnc(F)cn3)c(C)c2)ccc1CN1CC[C@H](C(=O)O)C1 [Compound 67, (S, E)-1-(2-ethyl-4-(1-(((4-(5-fluoropyrazin-2-yl)-3-methylbenzyl)oxy)imino)ethyl)benzyl)pyrrolidine-3-carboxylic acid]	3.74 ± 0.221	significantly lower	significantly reduced swelling of the wrist and ankle joints	significantly lower imaging scores	showed significant effects	showed significant effects	significantly decreased	increased significantly	significantly decreased	increased significantly	significantly decreased	increased significantly	significantly decreased	cartilage of most rat knee joints became smooth and bright	enhanced Safranin O staining	pain index (SD rats; DAY7, 1 mg/kg intragastric once daily, vs Model group): significantly decreased; five-minute walking distance (SD rats; DAY14, 1 mg/kg, vs Model group): increased significantly; serum IL-10 level (SD rats; Elisa, vs Model group): tended to upregulate; serum IL-17 level (SD rats; Elisa, vs Model group): tended to upregulate
